Measured values published in patent publication US20220016102A1, “ER PROTEIN REGULATORS AND USE THEREOF” (ShanghaiTech University, priority 2018, published 2022).

Experiments:
[1] = biological target: T1, ER protein (Homo sapiens, UniProt P03372); assay: Western blotting analysis of ER protein degradation in T47D cell line; type: cell-based; design: western blotting detection of the level of intracellular ER protein; endogenous in cells; host or cells: T47D; conditions: degradation of ER protein, T47D cells, drug treatment for 16 hours, Western blot gray values vs DMSO control; read-out: DC50 (nM)/T47Dcell line
T1 sequence (P03372 1-595): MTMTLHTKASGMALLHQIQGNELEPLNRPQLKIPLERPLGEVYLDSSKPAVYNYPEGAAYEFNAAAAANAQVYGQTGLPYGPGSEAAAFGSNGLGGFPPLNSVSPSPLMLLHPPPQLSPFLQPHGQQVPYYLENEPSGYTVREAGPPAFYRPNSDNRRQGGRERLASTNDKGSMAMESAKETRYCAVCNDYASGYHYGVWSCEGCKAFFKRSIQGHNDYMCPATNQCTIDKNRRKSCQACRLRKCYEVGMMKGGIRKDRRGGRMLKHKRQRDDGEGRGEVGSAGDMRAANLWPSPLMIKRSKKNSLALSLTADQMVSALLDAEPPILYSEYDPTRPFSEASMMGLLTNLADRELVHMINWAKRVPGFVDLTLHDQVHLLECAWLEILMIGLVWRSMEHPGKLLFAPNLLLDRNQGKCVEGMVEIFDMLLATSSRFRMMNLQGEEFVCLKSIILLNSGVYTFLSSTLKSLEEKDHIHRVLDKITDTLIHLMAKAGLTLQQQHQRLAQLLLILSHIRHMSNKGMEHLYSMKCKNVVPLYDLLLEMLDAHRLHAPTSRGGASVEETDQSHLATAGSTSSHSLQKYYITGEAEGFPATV
Description: T47D cells were cultured in an incubator with 5% CO2 at 37° C. Complete medium was RPMI1640 supplemented with 10% Foetal bovine serum (FBS), 100 U/ml Penicillin and Streptomycin, and 0.77 μg/mL recombinant human insulin. Western blotting analysis of T47D cell line: • Cells were plated in a 24-well plate at a cell seeding […] of 1.5×10^5 cells/mL, with 1 ml cell suspensions per well. • After 24 h the cells were adherent, and the cells in each well were treated with 1 μL a certain concentration of ER protein regulators of the present disclosure. […] Afterwards, the membranes were block by using the Blocking Buffer, and the antibody incubation and development were performed. (The above procedures were all based on the antibody product manual of the manufacturer) DC50 value (the drug concentration required for degrading proteins by 50%, abbreviated as DC50) reads method: comparing the gray values of the Western blotting bands for the drug treatment with the gray values of the Western blotting band for the DMSO control, and reading the drug concentration range corresponding to the gray value of the Western blotting bands for the drug treatment which is equal to half of the gray value of the Western blotting band for the DMSO control. DC50 value could also be calculated as follows: using software ImageJ to quantify the gray values of the Western blotting bands for the drug treatment, fitting the relationship curve between drug concentrations and gray values, and from the fitted curve, calculating the drug concentration corresponding to half of the gray value of the Western blotting band for the DMSO control.

[2] = biological target: T1, ER protein; assay: Western blotting analysis of ER protein degradation in MCF-7 cell line; type: cell-based; design: western blotting detection of the level of intracellular ER protein; endogenous in cells; conditions: MCF-7 cells, Western blot gray values vs DMSO control
Description: MCF-7 were cultured in ncubator with 5% CO2 at 37° C. Complete medium was EMEM supplemented with 10% FBS, 100 U/mL Penicillin and Streptomycin, and 0.77 μg/mL recombinant human insulin. […]
DC50 value (the drug concentration required for degrading proteins by 50%, abbreviated as DC50) reads method: comparing the gray values of the Western blotting bands for the drug treatment with the gray values of the Western blotting band for the DMSO control, and reading the drug concentration range corresponding to the gray value of the Western blotting bands for the drug treatment which is equal to half of the gray value of the Western blotting band for the DMSO control.
DC50 value could also be calculated as follows: using software ImageJ to quantify the gray values of the Western blotting bands for the drug treatment, fitting the relationship curve between drug concentrations and gray values, and from the fitted curve, calculating the drug concentration corresponding to half of the gray value of the Western blotting band for the DMSO control.

| SMILES | DC50 [1] | DC50 [2] |
| --- | --- | --- |
| Cc1ncsc1-c1ccc(CNC(=O)[C@@H]2C[C@@H](O)CN2C(=O)[C@@H](NC(=O)CCCCC(=O)NCCOc2ccc(C(=C(CCCl)c3ccccc3)c3ccc(O)cc3)cc2)C(C)(C)C)cc1 [SIAIS208032, N1-(2-(4-(4-chloro-1-(4-hydroxyphenyl)-2-phenylbut-1-en-1-yl)phenoxy)ethyl)-N6-((S)-1-((2S,4R)-4-hydroxy-2-((4-(4-methylthiazol-5-yl)benzyl)carbamoyl)pyrrolidin-1-yl)-3,3-dimethyl-1-oxobutan-2-yl)adipamide] | < 50 nM | < 100 nM |
| Cc1ncsc1-c1ccc(CNC(=O)[C@@H]2C[C@@H](O)CN2C(=O)[C@@H](NC(=O)CCCCCC(=O)NCCOc2ccc(C(=C(CCCl)c3ccccc3)c3ccc(O)cc3)cc2)C(C)(C)C)cc1 [SIAIS208033, N1-(2-(4-(4-chloro-1-(4-hydroxyphenyl)-2-phenylbut-1-en-1-yl)phenoxy)ethyl)-N7-((S)-1-((2S,4R)-4-hydroxy-2-((4-(4-methylthiazol-5-yl)benzyl)carbamoyl)pyrrolidin-1-yl)-3,3-dimethyl-1-oxobutan-2-yl)heptanediamide] | < 10 nM | < 10 nM |
| Cc1ncsc1-c1ccc(CNC(=O)[C@@H]2C[C@@H](O)CN2C(=O)[C@@H](NC(=O)CCOCCOCCC(=O)NCCOc2ccc(C(=C(CCCl)c3ccccc3)c3ccc(O)cc3)cc2)C(C)(C)C)cc1 [SIAIS208017, (2S,4R)-1-((S)-2-(tert-butyl)-16-(4-(4-chloro-1-(4-hydroxyphenyl)-2-phenylbut-1-en-1-yl)phenoxy)-4,13-dioxo-7,10-dioxa-3,14-diazahexadecanoyl)-4-hydroxy-N-(4-(4-methylthiazol-5-yl)benzyl)pyrrolidine-2-carboxamide] | < 50 nM | < 100 nM |
| Cc1ncsc1-c1ccc(CNC(=O)[C@@H]2C[C@@H](O)CN2C(=O)[C@@H](NC(=O)CCOCCOCCOCCC(=O)NCCOc2ccc(C(=C(CCCl)c3ccccc3)c3ccc(O)cc3)cc2)C(C)(C)C)cc1 [SIAIS208018, (2S,4R)-1-((S)-2-(tert-butyl)-19-(4-(4-chloro-1-(4-hydroxyphenyl)-2-phenylbut-1-en-1-yl)phenoxy)-4,16-dioxo-7,10,13-trioxa-3,17-diazanonadecanoyl)-4-hydroxy-N-(4-(4-methylthiazol-5-yl)benzyl)pyrrolidine-2-carboxamide] | < 50 nM | < 50 nM |
| Cc1ncsc1-c1ccc(CNC(=O)[C@@H]2C[C@@H](O)CN2C(=O)[C@@H](NC(=O)CCCCCCCCCCCCCCC(=O)NCCOc2ccc(C(=C(CCCl)c3ccccc3)c3ccc(O)cc3)cc2)C(C)(C)C)cc1 [SIAIS208039, N1-(2-(4-(4-chloro-1-(4-hydroxyphenyl)-2-phenylbut-1-en-1-yl)phenoxy)ethyl)-N16-((S)-1-((2S,4R)-4-hydroxy-2-((4-(4-methylthiazol-5-yl)benzyl)carbamoyl)pyrrolidin-1-yl)-3,3-dimethyl-1-oxobutan-2-yl)hexadecanediamide] | < 50 nM | < 100 nM |
| Cc1ncsc1-c1ccc(CNC(=O)[C@@H]2C[C@@H](O)CN2C(=O)[C@@H](NC(=O)CCCC(=O)NCCOc2ccc(C(=C(CCCl)c3ccccc3)c3ccc(O)cc3)cc2)C(C)(C)C)cc1 [SIAIS208031, N1-(2-(4-(4-chloro-1-(4-hydroxyphenyl)-2-phenylbut-1-en-1-yl)phenoxy)ethyl)-N5-((S)-1-((2S,4R)-4-hydroxy-2-((4-(4-methylthiazol-5-yl)benzyl)carbamoyl)pyrrolidin-1-yl)-3,3-dimethyl-1-oxobutan-2-yl)glutaramide] | < 100 nM | < 100 nM |
| Cc1ncsc1-c1ccc(CNC(=O)[C@@H]2C[C@@H](O)CN2C(=O)[C@@H](NC(=O)CCCCCCCCCCCCC(=O)NCCOc2ccc(C(=C(CCCl)c3ccccc3)c3ccc(O)cc3)cc2)C(C)(C)C)cc1 [SIAIS208038, N1-(2-(4-(4-chloro-1-(4-hydroxyphenyl)-2-phenylbut-1-en-1-yl)phenoxy)ethyl)-N14-((S)-1-((2S,4R)-4-hydroxy-2-((4-(4-methylthiazol-5-yl)benzyl)carbamoyl)pyrrolidin-1-yl)-3,3-dimethyl-1-oxobutan-2-yl)tetradecanediamide] | < 50 nM | < 10 nM |
| Cc1ncsc1-c1ccc(CNC(=O)[C@@H]2C[C@@H](O)CN2C(=O)[C@@H](NC(=O)COCCOCC(=O)NCCOc2ccc(C(=C(CCCl)c3ccccc3)c3ccc(O)cc3)cc2)C(C)(C)C)cc1 [SIAIS208041, (2S,4R)-1-((S)-2-(tert-butyl)-14-(4-(4-chloro-1-(4-hydroxyphenyl)-2-phenylbut-1-en-1-yl)phenoxy)-4,11-dioxo-6,9-dioxa-3,12-diazatetradecanoyl)-4-hydroxy-N-(4-(4-methylthiazol-5-yl)benzyl)pyrrolidine-2-carboxamide] | < 10 nM | 10 nM |
| Cc1ncsc1-c1ccc(CNC(=O)[C@@H]2C[C@@H](O)CN2C(=O)[C@@H](NC(=O)CCOCCOCCOCCOCCC(=O)NCCOc2ccc(C(=C(CCCl)c3ccccc3)c3ccc(O)cc3)cc2)C(C)(C)C)cc1 [SIAIS208019, N1-(2-(4-(4-chloro-1-(4-hydroxyphenyl)-2-phenylbut-1-en-1-yl)phenoxy)ethyl)-N16-((S)-1-((2S,4R)-4-hydroxy-2-((4-(4-methylthiazol-5-yl)benzyl)carbamoyl)pyrrolidin-1-yl)-3,3-dimethyl-1-oxobutan-2-yl)-4,7,10,13-tetraoxahexadecanediamide] | < 10 nM | < 50 nM |
| Cc1ncsc1-c1ccc(CNC(=O)[C@@H]2C[C@@H](O)CN2C(=O)[C@@H](NC(=O)CCC(=O)NCCOc2ccc(C(=C(CCCl)c3ccccc3)c3ccc(O)cc3)cc2)C(C)(C)C)cc1 [SIAIS208020, N1-(2-(4-(4-chloro-1-(4-hydroxyphenyl)-2-phenylbut-1-en-1-yl)phenoxy)ethyl)-N4-((S)-1-((2S,4R)-4-hydroxy-2-((4-(4-methylthiazol-5-yl)benzyl)carbamoyl)pyrrolidin-1-yl)-3,3-dimethyl-1-oxobutan-2-yl)succinamide] | < 10 nM | < 50 nM |
| Cc1ncsc1-c1ccc(CNC(=O)[C@@H]2C[C@@H](O)CN2C(=O)[C@@H](NC(=O)CCCCCCCCC(=O)NCCOc2ccc(/C(=C(/CCCl)c3ccccc3)c3ccc(O)cc3)cc2)C(C)(C)C)cc1 [SIAIS208036, N1-(2-(4-((Z)-4-chloro-1-(4-hydroxyphenyl)-2-phenylbut-1-en-1-yl)phenoxy)ethyl)-N10-((S)-1-((2S,4R)-4-hydroxy-2-((4-(4-methylthiazol-5-yl)benzyl)carbamoyl)pyrrolidin-1-yl)-3,3-dimethyl-1-oxobutan-2-yl)decanediamide] | < 10 nM | < 10 nM |
| Cc1ncsc1-c1ccc(CNC(=O)[C@@H]2C[C@@H](O)CN2C(=O)[C@@H](NC(=O)CCCCCCC(=O)NCCOc2ccc(C(=C(CCCl)c3ccccc3)c3ccc(O)cc3)cc2)C(C)(C)C)cc1 [SIAIS208034, N1-(2-(4-(4-chloro-1-(4-hydroxyphenyl)-2-phenylbut-1-en-1-yl)phenoxy)ethyl)-N8-((S)-1-((2S,4R)-4-hydroxy-2-((4-(4-methylthiazol-5-yl)benzyl)carbamoyl)pyrrolidin-1-yl)-3,3-dimethyl-1-oxobutan-2-yl)octanediamide] | < 10 nM | < 10 nM |
